The results in this text go back to US8785429B2, “Dihydropyrrolonaphthyridinone compounds as inhibitors of JAK” (Takeda Pharmaceutical Company Limited, priority 2009, dated 2014).

In one test the target is T1, JAK3 (Homo sapiens, UniProt P52333).
T1 construct: purchased Invitrogen
T1 sequence (P52333 1-1124): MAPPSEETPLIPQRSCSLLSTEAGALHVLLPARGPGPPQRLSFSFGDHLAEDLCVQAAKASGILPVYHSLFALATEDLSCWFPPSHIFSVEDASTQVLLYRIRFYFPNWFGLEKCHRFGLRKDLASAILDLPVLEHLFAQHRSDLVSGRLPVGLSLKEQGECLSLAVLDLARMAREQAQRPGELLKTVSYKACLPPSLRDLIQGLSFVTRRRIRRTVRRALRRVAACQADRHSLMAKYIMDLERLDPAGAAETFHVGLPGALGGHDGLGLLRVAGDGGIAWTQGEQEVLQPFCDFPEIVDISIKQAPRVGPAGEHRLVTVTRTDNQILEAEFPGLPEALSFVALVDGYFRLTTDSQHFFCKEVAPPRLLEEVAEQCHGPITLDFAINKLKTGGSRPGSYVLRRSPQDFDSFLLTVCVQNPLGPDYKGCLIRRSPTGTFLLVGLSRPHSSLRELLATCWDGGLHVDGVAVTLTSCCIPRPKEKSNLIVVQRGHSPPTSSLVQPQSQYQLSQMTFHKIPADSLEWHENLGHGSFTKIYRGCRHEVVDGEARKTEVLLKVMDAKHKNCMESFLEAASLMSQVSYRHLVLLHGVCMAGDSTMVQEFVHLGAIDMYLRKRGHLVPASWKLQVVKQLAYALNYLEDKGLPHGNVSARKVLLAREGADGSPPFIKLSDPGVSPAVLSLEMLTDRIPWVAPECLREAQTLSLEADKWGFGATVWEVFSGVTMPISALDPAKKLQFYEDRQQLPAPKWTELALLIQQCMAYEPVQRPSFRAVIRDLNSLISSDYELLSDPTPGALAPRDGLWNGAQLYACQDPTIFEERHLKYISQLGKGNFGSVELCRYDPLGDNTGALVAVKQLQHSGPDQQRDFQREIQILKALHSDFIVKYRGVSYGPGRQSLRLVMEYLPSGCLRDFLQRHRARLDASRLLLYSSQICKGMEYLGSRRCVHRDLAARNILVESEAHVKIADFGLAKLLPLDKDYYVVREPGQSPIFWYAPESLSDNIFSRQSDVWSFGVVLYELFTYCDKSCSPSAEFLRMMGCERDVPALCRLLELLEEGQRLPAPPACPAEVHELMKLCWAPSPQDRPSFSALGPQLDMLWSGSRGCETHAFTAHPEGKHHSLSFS
In words: Assay for JAK3 Inhibition (phosphorylation of FAM-labeled substrate, Caliper LC-3000). It counts as biochemical. As to conditions: −log10(IC50), IC50 is the molar concentration at 50% inhibition; read-out: JAK3 pIC50 (converted). On the procedure:
(§1) A compound's ability to inhibit JAK activity may be assessed using a variety of methods, including in vitro and in vivo assays. The following in vitro assays measure a test compound's ability to inhibit JAK2- and JAK3-mediated phosphorylation of FAM-labeled JAK-specific substrates.
(§2) Purified JAK2 and JAK3 proteins were purchased from Invitrogen. JAK2 and JAK3 inhibition is determined using a black 384-well-plate format in buffer containing 50 mM HEPES, 10 mM NaCl, 10 mM MgCl2, 0.2 mM EDTA, 0.01% EDA (Brij® 35), 1 mM DTT, 0.1 mg/mL BSA at pH 7.3. Each test compound is prepared in DMSO using 2-fold serial dilutions for 11 data points and is added to the buffer so that each dilution contains 3% DMSO.
To each well is added 2 μL of 3 μM 5FAM-KKKKEEIYFFFG-NH2 and 15 μM ATP (in buffer), 2 μL of diluted test compound (3% DMSO in medium), and 2 μL of 1.2 nM JAK3 in buffer. The reaction mixture is incubated at room temperature for 60 min and is quenched by adding 50 mM HEPES, 30 mM EDTA, and 0.1% Tx-100 (pH 7.3). To quantify the fluorescent-labeled substrate and product following reaction, the test plate is loaded on a Caliper LC-3000, which measures percent of conversion by microfluidic-based separation.
(§3) Corresponding IC50 values are calculated by non-linear curve fitting of the compound concentrations and percent of inhibition to the standard IC50 equation.

The target of the next test is T2, JAK2 (Homo sapiens, UniProt O60674).
T2 construct: purchased Invitrogen
T2 sequence (O60674 whole entry): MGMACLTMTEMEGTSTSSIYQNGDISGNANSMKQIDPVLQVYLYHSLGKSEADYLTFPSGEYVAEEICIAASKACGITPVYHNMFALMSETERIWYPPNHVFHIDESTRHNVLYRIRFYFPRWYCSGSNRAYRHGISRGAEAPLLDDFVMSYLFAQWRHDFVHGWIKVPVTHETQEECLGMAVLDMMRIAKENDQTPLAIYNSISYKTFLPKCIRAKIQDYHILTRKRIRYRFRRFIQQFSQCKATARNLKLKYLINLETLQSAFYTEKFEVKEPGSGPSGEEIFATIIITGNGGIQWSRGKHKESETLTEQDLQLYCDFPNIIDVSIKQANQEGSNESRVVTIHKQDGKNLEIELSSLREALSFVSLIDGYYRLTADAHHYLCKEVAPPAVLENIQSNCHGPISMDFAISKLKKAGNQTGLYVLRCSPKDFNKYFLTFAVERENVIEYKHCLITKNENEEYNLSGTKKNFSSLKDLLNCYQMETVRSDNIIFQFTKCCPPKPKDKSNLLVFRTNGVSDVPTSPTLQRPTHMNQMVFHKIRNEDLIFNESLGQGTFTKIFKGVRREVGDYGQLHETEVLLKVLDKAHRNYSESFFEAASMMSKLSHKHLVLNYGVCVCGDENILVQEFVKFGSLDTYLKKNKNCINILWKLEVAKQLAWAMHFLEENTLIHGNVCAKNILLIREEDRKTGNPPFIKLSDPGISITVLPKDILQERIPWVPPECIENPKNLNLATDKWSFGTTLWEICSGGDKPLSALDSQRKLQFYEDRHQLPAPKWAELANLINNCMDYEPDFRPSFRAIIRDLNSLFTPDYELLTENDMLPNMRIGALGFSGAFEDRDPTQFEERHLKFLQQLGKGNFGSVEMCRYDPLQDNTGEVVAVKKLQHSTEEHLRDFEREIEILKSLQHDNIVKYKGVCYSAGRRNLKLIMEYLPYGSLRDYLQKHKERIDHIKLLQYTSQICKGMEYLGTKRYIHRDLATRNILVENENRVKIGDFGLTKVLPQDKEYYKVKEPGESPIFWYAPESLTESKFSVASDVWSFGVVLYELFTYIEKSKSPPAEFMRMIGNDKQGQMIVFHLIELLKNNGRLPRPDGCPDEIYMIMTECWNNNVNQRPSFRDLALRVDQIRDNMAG
In words: Assay for JAK2 Inhibition (phosphorylation of FAM-labeled substrate, Caliper LC-3000). It counts as biochemical. As to conditions: −log10(IC50), IC50 is the molar concentration at 50% inhibition; read-out: JAK2 pIC50 (converted). On the procedure:
as §1, §2
To each well is added 2 μL of 3 μM 5FAM-KKKKEEIYFFFG-NH2 and 45 μM ATP (in buffer), 2 μL of diluted test compound (3% DMSO in medium), and 2 μL of 0.6 nM JAK2 in buffer. The reaction mixture is incubated at room temperature for 60 min and is quenched by adding 50 mM HEPeX, 30 mM EDTA, and 0.1% Tx-100 (pH 7.3). To quantify the fluorescent-labeled substrate and product following reaction, the test plate is loaded on a Caliper LC-3000, which measures percent of conversion by microfluidic-based separation.
as §3

SMILES strings stand for the structures.

In the case of `CC[C@H](C(=O)N1CCN(C)CC1)N1Cc2ccnc3[nH]cc(c23)C1=O` [Example 55, (R)-4-(1-(4-methylpiperazin-1-yl)-1-oxobutan-2-yl)-4,5-dihydropyrrolo[4,3,2-de][2,6]naphthyridin-3(1 H)-one], the IC50 at JAK3 was 1000 nM; at JAK2 it was 12600 nM.
Consider `CC(C)[C@H](C(=O)N1CC(C#N)C1)N1Cc2c(F)cnc3[nH]cc(c23)C1=O` [Example 42, (R)-1-(2-(6-fluoro-3-oxopyrrolo[4,3,2-de][2,6]naphthyridin-4(1H,3H,5H)-yl)-3-methylbutanoyl)azetidine-3-carbonitrile], for which the IC50 was 6.31 nM at JAK3 and 126 nM on JAK2.
For `CC(C)C[C@H](C(=O)N1CCCC1)N1Cc2ccnc3[nH]cc(c23)C1=O` [Example 21, (R)-4-(4-methyl-1-oxo-1-(pyrrolidin-1-yl)pentan-2-yl)-4,5-dihydropyrrolo[4,3,2-de][2,6]naphthyridin-3(1H)-one], in that order: 126 nM and 794 nM.
For `CC(C)[C@H](C(=O)N1CC(C#N)(CF)C1)N1Cc2ccnc3[nH]cc(c23)C1=O` [Example 51, (R)-3-(fluoromethyl)-1-(3-methyl-2-(3-oxopyrrolo[4,3,2-de][2,6]naphthyridin-4(1H,3H,5H)-yl)butanoyl)azetidine-3-carbonitrile], in that order: 5.01 nM and 158 nM.
For `CC[C@H](C(=O)NCC1CC1)N1Cc2ccnc3[nH]cc(c23)C1=O` [Example 66, (R)—N-(cyclopropylmethyl)-2-(3-oxopyrrolo[4,3,2-de][2,6]naphthyridin-4(1H,3H,5H)-yl)butanamide], the IC50 was 3980 nM on JAK3 and 20000 nM on JAK2.
Turning to `CC(C)(C)[C@H](C(=O)NC1CCCC1)N1Cc2ccnc3[nH]cc(c23)C1=O` [Example 26, (R)—N-cyclopentyl-3,3-dimethyl-2-(3-oxopyrrolo[4,3,2-de][2,6]naphthyridin-4(1H,3H,5H)-yl)butanamide], the results for the IC50 at JAK3 and at JAK2 were 10 nM and 126 nM, respectively.
For `CC(C)[C@H](C(=O)N1CCC[C@@H]1C#N)N1Cc2c(Cl)cnc3[nH]cc(c23)C1=O` [Example 85, (R)-1-((R)-2-(6-chloro-3-oxopyrrolo[4,3,2-de][2,6]naphthyridin-4(1H,3H,5H)-yl)-3-methylbutanoyl)pyrrolidine-2-carbonitrile], in that order: 100 nM and 1580 nM.
On to `Cc1cnc2[nH]cc3c2c1CN([C@@H](C(=O)N1CC(C#N)C1)C(C)C)C3=O` [Example 88, (R)-1-(3-methyl-2-(6-methyl-3-oxopyrrolo[4,3,2-de][2,6]naphthyridin-4(1H,3H,5H)-yl)butanoyl)azetidine-3-carbonitrile], for which the IC50 on JAK3 is 1.58 nM; on JAK2 it was 25.1 nM.
Taken in the same sequence, the figures for `CC[C@@H](C(=O)N1CCCC1)N1Cc2ccnc3[nH]cc(c23)C1=O` [Example 18, (S)-4-(1-oxo-1-(pyrrolidin-1-yl)butan-2-yl)-4,5-dihydropyrrolo[4,3,2-de][2,6]naphthyridin-3(1H)-one] were 20000 nM and 20000 nM.
With `CC(C)[C@H](C(=O)NC1CCS(=O)(=O)CC1)N1Cc2c(F)cnc3[nH]cc(c23)C1=O` [Example 47, (R)—N-(1,1-dioxidotetrahydro-2H-thiopyran-4-yl)-2-(6-fluoro-3-oxopyrrolo[4,3,2-de][2,6]naphthyridin-4(1H,3H,5H)-yl)-3-methylbutanamide], the figures for the IC50 on JAK3 and on JAK2 were 126 nM and 2510 nM, respectively.
Taken in the same sequence, the figures for `CC[C@H](C(=O)N1CCN(S(C)(=O)=O)CC1)N1Cc2ccnc3[nH]cc(c23)C1=O` [Example 63, (R)-4-(1-(4-(methylsulfonyl)piperazin-1-yl)-1-oxobutan-2-yl)-4,5-dihydropyrrolo[4,3,2-de][2,6]naphthyridin-3(1 H)-one] were 631 nM and 6310 nM.
Taken in the same sequence, the figures for `CC(C)[C@H](C(=O)N1CCC(C#N)CC1)N1Cc2c(Cl)cnc3[nH]cc(c23)C1=O` [Example 34, (R)-1-(2-(6-chloro-3-oxopyrrolo[4,3,2-de][2,6]naphthyridin-4(1H,3H,5H)-yl)-3-methylbutanoyl)piperidine-4-carbonitrile] were 15.8 nM and 251 nM.
`CC[C@H](C(=O)N1CCC(O)C1)N1Cc2ccnc3[nH]cc(c23)C1=O` (stereo partly drawn) [Example 56, 4-((2R)-1-(3-hydroxypyrrolidin-1-yl)-1-oxobutan-2-yl)-4,5-dihydropyrrolo[4,3,2-de][2,6]naphthyridin-3(1 H)-one]: the IC50 at JAK3 was 631 nM; at JAK2 it was 10000 nM.
For `CC(C)[C@H](C(=O)N1CC(C(F)F)C1)N1Cc2c(F)cnc3[nH]cc(c23)C1=O` [Example 80, (R)-4-(1-(3-(difluoromethyl)azetidin-1-yl)-3-methyl-1-oxobutan-2-yl)-6-fluoro-4,5-dihydropyrrolo[4,3,2-de][2,6]naphthyridin-3(1H)-one], in that order: 15.8 nM and 398 nM.
For the compound `CC[C@H](CC#N)NC(=O)[C@@H](C(C)C)N1Cc2c(Cl)cnc3[nH]cc(c23)C1=O` [Example 38, (R)-2-(6-chloro-3-oxopyrrolo[4,3,2-de][2,6]naphthyridin-4(1H,3H,5H)-yl)-N—((R)-1-cyanobutan-2-yl)-3-methylbutanamide], the IC50 at JAK3 was 31.6 nM; at JAK2 it was 1000 nM.
Taken in the same sequence, the figures for `CC(C)[C@H](C(=O)N1CC(C)(C#N)C1)N1Cc2ccnc3[nH]cc(c23)C1=O` [Example 53, (R)-3-methyl-1-(3-methyl-2-(3-oxopyrrolo[4,3,2-de][2,6]naphthyridin-4(1H,3H,5H)-yl)butanoyl)azetidine-3-carbonitrile] were 12.6 nM and 251 nM.
For `O=C1c2ccnc3[nH]cc(c23)CN1C(CCO)C1CC1` (stereo not shown) [Example 11, 4-(1-cyclopropyl-3-hydroxypropyl)-3,4-dihydropyrrolo[4,3,2-de][2,6]naphthyridin-5(1H)-one], in that order: 316 nM and 398 nM.
Turning to `O=C(NC1CCCC1)[C@@H](C1CCCC1)N1Cc2ccnc3[nH]cc(c23)C1=O` [Example 27, (R)—N,2-dicyclopentyl-2-(3-oxopyrrolo[4,3,2-de][2,6]naphthyridin-4(1H,3H,5H)-yl)acetamide], the results for the IC50 at JAK3 and on JAK2 were 251 nM and 3160 nM, respectively.
On to `O=C1c2c[nH]c3nccc(c23)CN1C1(C(=O)NC2CCCC2)CCCC1` [Example 31, N-cyclopentyl-1-(3-oxopyrrolo[4,3,2-de][2,6]naphthyridin-4(1H,3H,5H)-yl)cyclopentanecarboxamide], for which the IC50 at JAK3 and at JAK2 was 20000 nM in each case.
Consider `CC[C@H](C(=O)N1CCC(N(C)C)C1)N1Cc2ccnc3[nH]cc(c23)C1=O` (stereo partly drawn) [Example 59, 4-((2R)-1-(3-(dimethylamino)pyrrolidin-1-yl)-1-oxobutan-2-yl)-4,5-dihydropyrrolo[4,3,2-de][2,6]naphthyridin-3(1 H)-one], for which the IC50 on JAK3 is 6310 nM; at JAK2, 20000 nM.
